Assay results: patent US7166581B1, “Treatment of chemotherapeutic agent and antiviral agent toxicity with acylated pyrimidine nucleosides” (Wellstat Therapeutics Corporation, priority 1987, dated 2007)

Tested on: hematopoietic system (AZT toxicity)
Assay: Oral TAU vs hematopoietic damage by i.p. AZT (Example 9)
Assay type: in vivo, female Balb/C mice
Method: AZT (100 mg/kg i.p.) was given three times daily at 9 a.m., 4 p.m., and at 10 p.m. to fifty-six female Balb/C mice weighing approximately 19 grams each. Three times each day, at 9 a.m., 4 p.m., and 10 p.m., animals were treated with either water (control) or TAU at doses of 230, 460, or 920 mg/kg/treatment by oral intubation. Treatment volume was 0.2 ml for the control and TAU 460 groups, 0.1 ml for the TAU 230 group, and 0.4 ml for the TAU 920 group. One additional group of fourteen mice was not given AZT or any treatments (basal).
All of the animals were weighed on the day the experiment began, on day six and on day 13. After weighing the mice on days six and thirteen blood (0.2–0.3 ml) was collected from seven mice in each group by retro-orbital bleeding into EDTA for subsequent differential blood cell counting, including reticulocytes. Mice were then sacrificed by cervical dislocation; their right femurs removed and the contents expelled for cell counting; and their spleens removed and weighed.

[1] = day 13, AZT i.p. + oral TAU 460 mg/kg/treatment

Structure (SMILES): CC(=O)OC[C@H]1O[C@@H](n2ccc(=O)[nH]c2=O)[C@H](OC(C)=O)[C@@H]1OC(C)=O [TAU, triacetyluridine]
- HCT [1]: 40.83 ± 0.37%
- HGB [1]: 14.54 ± G/dL
- Lymph. [1]: 6.06 ± 0.38 K/μl
- Neutro. [1]: 0.62 ± 0.03 K/μl
- Platelets [1]: 863 ± 26 K/μl
- RBC [1]: 8.58 ± M/μl
- Retic. [1]: 0.162 ± 0.014 M/μl
- WBC [1]: 7.0 ± K/μl
- bone marrow cellularity (day six, AZT 100 mg/kg i.p. three times daily + oral TAU 230 mg/kg): 8.89±0.46
- RBC levels (day six, AZT i.p. + oral TAU 460 mg/kg/treatment): 9.15±0.07 ×10^6 per microliter
- WBC counts (day six, AZT i.p. + oral TAU 920 mg/kg): 8.46±0.63 ×10^3 per microliter
